Results from ChEMBL document CHEMBL3808378, “Enantioselective syntheses of both enantiomers of 9'-dehydroxyimperanene and 7,8-dihydro-9'-dehydroxyimperanene and the comparison of biological activity between 9-norlignans and dihydroguaiaretic acids” (Bioorg Med Chem Lett, 2016).
Converted amounts (≈) assume the structure as drawn.

Key:
Culex pipiens = test: Antilarvicidal activity against Culex pipiens larvae after 24 hrs; type: functional
Alternaria alternata = test: Antifungal activity against Alternaria alternata assessed as mycelial colony growth at 0.25 mM after 3 days by caliper analysis; type: functional
Fusarium solani = test: Antifungal activity against Fusarium solani assessed as mycelial colony growth levels at 0.25 mM after 3 days by caliper analysis; type: functional
[1] = Antifungal activity against Bipolaris oryzae assessed as mycelial colony growth levels at 0.25 mM after 3 days by caliper analysis; type: functional
Colletotrichum lagenaria = test: Antifungal activity against Colletotrichum lagenarium assessed as mycelial colony growth levels at 0.25 mM after 5 days by caliper analysis; type: functional
Bacillus subtilis = test: Antibacterial activity against Bacillus subtilis subsp. subtilis NBRC 13719 after 24 hrs by 2 fold dilution method; type: functional; settings: NBRC 13719, 24 h
Jonesia denitrificans = test: Antibacterial activity against Listeria denitrificans JCM 11481 after 24 hrs by 2 fold dilution method; type: functional; settings: JCM 11481, 24 h
Salmonella enterica = test: Antibacterial activity against Salmonella choleraesuis subsp. choleraesuis JCM 6977 after 24 hrs by 2 fold dilution method; type: functional; settings: JCM 6977, 24 h
HeLa = test: Cytotoxicity against human HeLa cells assessed as reduction in cell viability after 48 hrs by WST-8 reduction assay; type: functional, cell-based
[2] = Cytotoxicity against human HL60 cells assessed as reduction in cell viability after 48 hrs by WST-8 reduction assay; type: functional, cell-based; settings: HL-60, 48 h
Lolium multiflorum [3] = test: Growth inhibition of Italian ryegrass assessed as reduction in root growth at 1 mM after 5 days; type: functional; settings: 120 h, read-out: GI
Lolium multiflorum [4] = test: Growth inhibition of Italian ryegrass assessed as reduction in shoot growth at 1 mM after 5 days; type: functional; settings: 120 h, read-out: GI
[5] = Cytotoxicity against fall armyworm Sf9 cells assessed as reduction in cell viability after 48 hrs by WST-8 reduction assay; type: cell-based; settings: Spodoptera frugiperda, Sf9, 48 h
[6] = Selectivity index, ratio of IC50 for fall armyworm sf9 cells to IC50 for Cytotoxicity against human HeLa cells; type: toxicity, cell-based; settings: fall armyworm and human, read-out: Ratio IC50
[7] = Selectivity index, ratio of IC50 for fall armyworm Sf9 cells to IC50 for Cytotoxicity against human HL60 cells; type: toxicity, cell-based; settings: fall armyworm and human, read-out: Ratio IC50

COc1cc(CC[C@@H](C)Cc2ccc(O)c(OC)c2)ccc1O
LD50 (Culex pipiens): 9.9 ×10⁻⁵ M
Activity (Alternaria alternata): 32.3%
Activity (Fusarium solani): 70.1%
Activity [1]: 47.2%
Activity (Colletotrichum lagenaria): 39.4%
MIC (Bacillus subtilis): 3130 µM (≈ 990 µg/mL)
MIC (Jonesia denitrificans): 1560 µM (≈ 494 µg/mL)
MIC (Salmonella enterica): 6250 µM (≈ 1980 µg/mL)
IC50 (HeLa): 21 µM
IC50 [2]: 12 µM
inhibition of growth at 1000 µM (Lolium multiflorum [3]): -7.01%
inhibition of growth at 1000 µM (Lolium multiflorum [4]): 2.2%
IC50 [5]: 25 µM

COc1cc(CC[C@H](C)Cc2ccc(O)c(OC)c2)ccc1O
LD50 (Culex pipiens): 9.67 ×10⁻⁵ M
Activity (Alternaria alternata): 44.4%
Activity (Fusarium solani): 95.4%
Activity [1]: 46.4%
Activity (Colletotrichum lagenaria): 43.1%
MIC (Bacillus subtilis): 3130 µM (≈ 990 µg/mL)
MIC (Jonesia denitrificans): 1560 µM (≈ 494 µg/mL)
IC50 (HeLa): 6.1 µM
IC50 [2]: 5.6 µM
inhibition of growth at 1000 µM (Lolium multiflorum [3]): 13.3%
inhibition of growth at 1000 µM (Lolium multiflorum [4]): 19.9%
IC50 [5]: 12 µM
selectivity ratio [6]: 2
selectivity ratio [7]: 2

COc1cc(/C=C/[C@@H](C)Cc2ccc(O)c(OC)c2)ccc1O
LD50 (Culex pipiens): 48 ×10⁻⁵ M
Activity (Alternaria alternata): 43.3%
Activity (Fusarium solani): 96.1%
Activity [1]: 57.6%
Activity (Colletotrichum lagenaria): 67.8%
MIC (Bacillus subtilis): 6250 µM (≈ 1960 µg/mL)
MIC (Jonesia denitrificans): 3130 µM (≈ 984 µg/mL)
IC50 (HeLa): 19 µM
IC50 [2]: 21 µM
inhibition of growth at 1000 µM (Lolium multiflorum [3]): 14.8%
inhibition of growth at 1000 µM (Lolium multiflorum [4]): 5.2%
IC50 [5]: 30 µM

COc1cc(/C=C/[C@H](C)Cc2ccc(O)c(OC)c2)ccc1O
LD50 (Culex pipiens): 11 ×10⁻⁵ M
Activity (Alternaria alternata): 66%
Activity (Fusarium solani): 95.7%
Activity [1]: 66.4%
Activity (Colletotrichum lagenaria): 49.4%
MIC (Bacillus subtilis): 6250 µM (≈ 1960 µg/mL)
MIC (Jonesia denitrificans): 3130 µM (≈ 984 µg/mL)
IC50 (HeLa): 18 µM
IC50 [2]: 14 µM
inhibition of growth at 1000 µM (Lolium multiflorum [3]): 11.5%
inhibition of growth at 1000 µM (Lolium multiflorum [4]): 14.8%
IC50 [5]: 32 µM

COc1cc(C[C@H](C)[C@@H](C)Cc2ccc(O)c(OC)c2)ccc1O
LD50 (Culex pipiens): 4.03 ×10⁻⁵ M
Activity (Alternaria alternata): 38%
Activity (Fusarium solani): 34.5%
Activity [1]: 49.9%
Activity (Colletotrichum lagenaria): 20.1%
MIC (Bacillus subtilis): 1560 µM (≈ 515 µg/mL)
MIC (Jonesia denitrificans): 390 µM (≈ 129 µg/mL)
MIC (Salmonella enterica): 3130 µM (≈ 1030 µg/mL)
IC50 (HeLa): 24 µM
IC50 [2]: 32 µM
inhibition of growth at 1000 µM (Lolium multiflorum [3]): 51.9%
inhibition of growth at 1000 µM (Lolium multiflorum [4]): 17.8%
IC50 [5]: 18 µM
selectivity ratio [6]: 1.3
selectivity ratio [7]: 1.3

COc1cc(C[C@@H](C)[C@H](C)Cc2ccc(O)c(OC)c2)ccc1O [(-)-DIHYDROGUAIARETICACID]
LD50 (Culex pipiens): 3.52 ×10⁻⁵ M
Activity (Alternaria alternata): 32%
Activity (Fusarium solani): 36.5%
Activity [1]: 49.9%
Activity (Colletotrichum lagenaria): 33.8%
MIC (Bacillus subtilis): 1560 µM (≈ 515 µg/mL)
MIC (Jonesia denitrificans): 390 µM (≈ 129 µg/mL)
IC50 (HeLa): 26 µM
IC50 [2]: 22 µM
inhibition of growth at 1000 µM (Lolium multiflorum [3]): 18.4%
inhibition of growth at 1000 µM (Lolium multiflorum [4]): 14.9%
IC50 [5]: 29 µM

COc1cc(C[C@@H](C)[C@@H](C)Cc2ccc(O)c(OC)c2)ccc1O [MESODIHYDROGUAIARETIC ACID]
LD50 (Culex pipiens): 5.12 ×10⁻⁵ M
Activity (Alternaria alternata): 30%
Activity (Fusarium solani): 45.8%
Activity [1]: 53.7%
Activity (Colletotrichum lagenaria): 26%
MIC (Bacillus subtilis): 1560 µM (≈ 515 µg/mL)
MIC (Jonesia denitrificans): 1560 µM (≈ 515 µg/mL)
IC50 (HeLa): 28 µM
IC50 [2]: 41 µM
inhibition of growth at 1000 µM (Lolium multiflorum [3]): 68.8%
inhibition of growth at 1000 µM (Lolium multiflorum [4]): 20.9%
IC50 [5]: 17 µM
selectivity ratio [6]: 1.3
selectivity ratio [7]: 1.3
